Test results: patent publication US7238727B2, “Compositions for improving lipid metabolism” (Chugai Seiyaku Kabushiki Kaisha, priority 2000, dated 2007)

What was measured:
Type in all cases: in vivo
[1] = test system: matured rat models fed with high-fat diets; assay: Intraperitoneal adipose tissue area by abdominal CT scanning; conditions: 4 weeks-feeding group
From the text: (§1) After the completion of the pre-feeding, the animals were divided into 6 groups depending on feed and administration period. Rats of valine+lard groups were fed with a solid feed prepared by adding 8.4% lard (CAMERIA: manufactured by Romi Smilfood B. V.) and 3.0% L-valine (JP, manufactured by Ajinomoto Co., Inc.) to a conventional feed (CMF: manufactured by Oriental Yeast Co., Ltd.) for 2 or 4 weeks. Animals of casein+lard groups (i.e., control groups) were fed with a solid feed prepared by adding 8.4% lard and 3.0% milk-origin casein (manufactured by Wako Pure Chemical Industries, Ltd.) to the conventional feed (CMF: manufactured by Oriental Yeast Co., Ltd.) for 2 or 4 weeks. Animals of normal food groups were fed with a solid feed which was the conventional feed (CMF: manufactured by Oriental Yeast Co., Ltd.) for 2 or 4 weeks. During the experimental period, the rats of each group were maintained on the feed (constant feeding) and water (using a water supplier) as desired. Each group had 3 rats which were fed in a single cage (temperature: 20 to 26° C., humidity: 30 to 70%, illumination: 8:00 to 20:00) throughout the experimental period.
22 days after the initiation of the experiment, one rat of each of the 4 weeks-feeding groups was subjected to the abdominal CT scanning (slice width: 5 mm) under anesthesia with Nembutal. From the CT image thus obtained, the intraperitoneal adipose tissue area was determined as the mean of the intraperitoneal adipose-containing areas in posterior 4 slices from the sites where no kidney was observed.

[2] = test system: rabbit atherosclerotic model; assay: Plaque formation in aortic arch specimens; parameters: key to plaque formation in specimens of aortic arch: +: visible slight plaque formation; ++: visible moderate plaque formation; −: no visible plaque formation; conditions: 13 weeks; for plaque formation in specimens of aortic arch: feed with 0.2% cholesterol + 3.0% L-valine
Experimental: (§2) In order to evaluate the efficacy of valine on atherosclerosis and fatty liver, an L-valine containing feed was administered to a rabbit atherosclerotic model and its effect was investigated. Nine New Zealand White male rabbits aged 8 weeks (average body weight, 2.06 kg) were divided into three groups (n=3) by feed and fed for 13 weeks (temperature, 20 to 26° C.; humidity, 30 to 70%; illumination, 8:00 to 20:00). The untreated group was given an ordinary feed (NOSAN feed for laboratory animals, LABOR STOCK, manufactured by Nihon Nosan Kogyo, K.K.). As for the atherosclerotic model, the control group was given the ordinary feed plus 0.2% cholesterol (manufactured by Wako Pure Chemical Industries, Ltd.), and the valine group was given the ordinary feed plus 0.2% cholesterol plus 3.0% L-valine (JP, manufactured by Ajinomoto Co., Inc.). Throughout the experiment, the rabbits of each group were maintained on the feed (constant feeding) and water (using a water supplier) as desired. After 13 weeks, blood samples were collected from the abdominal aorta of the animals of each group under etherization and the animals were then sacrificed by bleeding. By subsequent autopsy, the degree of atherosclerotic lesion (plaque formation) in thoracic aorta and the degree of fatty liver were compared. Sections of the thoracic aorta and the liver were also prepared and examined histopathologically for intimal thickening and the formation of fat droplets.

[3] = test system: rabbit atherosclerotic model; assay: Intimal thickening in HE stained thoracic aorta sections; conditions: 0.2% cholesterol + 3.0% L-valine, 13 weeks
Experimental: as §2, with “Nine” for “In order to evaluate the efficacy of valine on atherosclerosis and fatty liver, an L-valine containing feed was administered to a rabbit atherosclerotic model and its effect was investigated. Nine”, “droplets. Sections of the thoracic aorta were HE stained (hematoxylin-eosin stained).” for “droplets.”

[4] = test system: rabbit atherosclerotic model; assay: Fatty liver by naked eye and HE stained liver sections; conditions: 0.2% cholesterol + 3.0% L-valine, 13 weeks
Experimental: as §2, with “Nine” for “In order to evaluate the efficacy of valine on atherosclerosis and fatty liver, an L-valine containing feed was administered to a rabbit atherosclerotic model and its effect was investigated. Nine”

[5] = test system: matured rat models fed with high-fat diets; assay: Peritesticular adipose tissue weight in rats fed a high-fat diet; conditions: for adipose tissue weight less than that of casein+lard group / mean adipose tissue weight relative to casein+lard group: 3.0% L-valine + 8.4% lard; for peritesticular adipose tissue weight: feed with 3.0% L-valine + 8.4% lard, mean±standard deviation, n=3
Experimental: To evaluate the effects of valine on lipid metabolism, the effects of the administration of L-valine containing feeds were examined on matured rat models fed with high-fat diets.
18 Crj:CD(SD) IGS male rats aged 12 weeks (body weight: 420 to 464 g, 443 g on average) were pre-fed for 5 days (not more than 4 animals/cage, temperature: 20 to 26° C., humidity: 30 to 70%, illumination: 8:00 to 20:00). During the pre-feeding period, the animals were maintained on a feed (constant feeding) and water (using a water supplier) as desired.
as §1
(§3) After 2 or 4 weeks, the blood samples of the animals of each group were collected from the abdominal aorta and then the animals were sacrificed by bleeding under etherization followed by autopsy. As intraperitoneal adipose tissue, the adipose tissue around the left testis and epididymis was weighed. The collected blood samples were subjected to a serobiochemical examination and the like.

[6] = test system: matured rat models fed with high-fat diets; assay: Serobiochemical examination of rats fed a high-fat diet
From the text: as §1, §3

[7] = 2 weeks feeding, mean±standard deviation, n=3
[8] = 4 weeks feeding, mean±standard deviation, n=3

SMILES: CC(C)[C@H](N)C(=O)O [valine, L-valine]
- increase in the intraperitoneal adipose tissue area versus casein+lard group ([1]; CT): more inhibited
- intraperitoneal adipose tissue area ([1]; CT 22 days after initiation, n=1): 3.2 cm^2
- intraperitoneal adipose tissue relative to casein+lard group ([1]; CT, n=1): about 0.65 times
- plaque formation compared with control group ([2]; 0.2% cholesterol + 3.0% L-valine, n=3): no plaque formation was visible, or plaque formation was visible but to a lesser extent than in the control group
- plaque formation in specimens of aortic arch ([2]; animal 1): −
- plaque formation in specimens of aortic arch ([2]; animal 2): −
- plaque formation in specimens of aortic arch ([2]; animal 3): +
- intimal thickening of thoracic aorta [3]: intimal thickening was hardly visible
- yellowing of the liver (fatty liver), naked eye [4]: no yellowing of the liver was observed, or yellowing of the liver was visible but to a lesser extent than in the control group
- fat droplets and swelling of hepatocytes ([4]; HE stained liver sections): hepatocytes contained such a small number of fat droplets that they experienced no visible swelling
- adipose tissue weight compared with normal food group ([5]; 2 weeks feeding): smaller than that of the normal food group
- adipose tissue weight less than that of casein+lard group ([5]; 2 weeks feeding): 30%
- mean adipose tissue weight relative to casein+lard group ([5]; 2 weeks feeding): about 0.70 times
- peritesticular adipose tissue weight ([5]; 2 weeks feeding): 2.55 ± 0.38 g
- adipose tissue weight compared with normal food group ([5]; 4 weeks feeding): smaller than that of the normal food group
- adipose tissue weight less than that of casein+lard group ([5]; 4 weeks feeding): 26%
- mean adipose tissue weight relative to casein+lard group ([5]; 4 weeks feeding): about 0.74 times
- peritesticular adipose tissue weight ([5]; 4 weeks feeding): 2.92 ± 0.40 g
- increase in the adipose tissue weight ([5]; both 2 weeks and 4 weeks feeding, feed intake almost the same): inhibited
- mean free fatty acid level relative to casein+lard group ([6]; 2 weeks feeding): about 0.73 times
- mean lipid peroxide level relative to casein+lard group ([6]; 2 weeks feeding): about 0.42 times
- mean triacylglycerol level relative to casein+lard group ([6]; 2 weeks feeding): about 0.54 times
- mean β-lipoprotein level relative to casein+lard group ([6]; 2 weeks feeding): about 0.53 times
- mean serum free fatty acid level [6, 7]: 0.35±0.06 mEq/L
- mean serum lipid peroxide level [6, 7]: 1.1 ± 0.7 nmol/dL
- mean serum triacylglycerol level [6, 7]: 52.0 ± 21.9 mg/dL
- mean serum β-lipoprotein level [6, 7]: 33.3 ± 14.5 mg/dL
- mean free fatty acid level relative to casein+lard group ([6]; 4 weeks feeding): about 0.82 times
- mean triacylglycerol level relative to casein+lard group ([6]; 4 weeks feeding): about 0.60 times
- mean β-lipoprotein level relative to casein+lard group ([6]; 4 weeks feeding): about 0.62 times
- mean serum free fatty acid level [6, 8]: 0.36±0.11 mEq/L
- mean serum triacylglycerol level [6, 8]: 67.7 ± 33.5 mg/dL
- mean serum β-lipoprotein level [6, 8]: 41.0 ± 10.8 mg/dL
